Assay [1] has as its system phosphorylated 4E-BP1 Thr37/46 (p4E-BP1 Thr37/46), mTORC1 activity, PC3 cells. As to the kind of experiment: mTOR target engagement assay, immunofluorescent cell-based, p4E-BP1 Thr37/46 readout (mTORC1 activity). Conditions: Homo sapiens, PC-3, PC3 cells, read-out: p4E-BP1 Thr37/46 IC50. Put shortly:
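Cell-based immunofluorescence in PC3 cells: serially diluted compounds (0.25% DMSO, 5% FBS) applied for ninety minutes at 37° C before fixation and overnight 4° C staining of p4E-BP1 Thr37/46. Untreated DMSO wells set maximal phosphorylation; IC50 obtained by logistic fitting.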

The subject of assay [2] is phosphorylated AKT Ser473 (pAKT S473), mTORC2 activity, PC3 cells. Briefly: mTOR target engagement assay, immunofluorescent cell-based, pAKT S473 readout (mTORC2 activity). To be noted: Homo sapiens, PC-3, PC3 cells. Put shortly: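 After blocking, cells were stained overnight at 4 °C with anti-pAKT S473 antibody, then a fluorescent secondary; inhibition was read as reduced fluorescence intensity.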

Where [3] appears, read: compound treatment ninety minutes at 37° C.

Where two headings read alike, the source gives them in different places.

For the compound `Nc1nnc(C(=O)N2C3CCC2CC(c2nc4c(-c5ccc(-c6ccccc6)nc5)cnn4c(N)c2C2CC2)C3)[nH]1` [Compound 8.104, (5-amino-4H-1,2,4-triazol-3-yl)((1R,3s,5S)-3-(7-amino-6-cyclopropyl-3-(6-phenylpyridin-3-yl)pyrazolo[1,5-a]pyrimidin-5-yl)-8-azabicyclo[3.2.1]octan-8-yl)methanone], the IC50 in assay [1] and in assay [2] was 1 to 100 nM in each case.
Turning to `CC(=O)c1c([C@@H]2C[C@H]3CC[C@@H](C2)N3C(=O)c2cn[nH]c2)nc2c(-c3ccc(C(C)(C)O)nc3)cnn2c1N` [Compound 7.12, 1-(5-((1R,3s,5S)-8-(1H-pyrazole-4-carbonyl)-8-azabicyclo[3.2.1]octan-3-yl)-7-amino-3-(6-(2-hydroxypropan-2-yl)pyridin-3-yl)pyrazolo[1,5-a]pyrimidin-6-yl)ethanone], the IC50 in assay [1] (setting [3]) and in assay [2] (setting [3]) was 100 to 1000 nM in each case.
For `CC(=O)c1c([C@@H]2C[C@H]3CC[C@@H](C2)N3C(=O)c2cc(N)n[nH]2)nc2c(-c3ccc(-c4cnn(C)c4)nc3)cnn2c1N` [Compound 1.1.176, 1-(7-amino-5-((1R,3s,5S)-8-(3-amino-1H-pyrazole-5-carbonyl)-8-azabicyclo[3.2.1]octan-3-yl)-3-(6-(1-methyl-1H-pyrazol-4-yl)pyridin-3-yl)pyrazolo[1,5-a]pyrimidin-6-yl)ethanone], the IC50 in assay [1] (setting [3]) and in assay [2] (setting [3]) was 100 to 1000 nM in each case.
`CC(=O)c1c([C@H]2CC3CC[C@H](C2)N3C(=O)c2nnc[nH]2)nc2c(-c3cnc4c(c3)OCCC4O)cnn2c1N` (stereo partly drawn) [Compound 7.63, 1-(5-((1R,3s,5S)-8-(4H-1,2,4-triazole-3-carbonyl)-8-azabicyclo[3.2.1]octan-3-yl)-7-amino-3-(4-hydroxy-3,4-dihydro-2H-pyrano[3,2-b]pyridin-7-yl)pyrazolo[1,5-a]pyrimidin-6-yl)ethanone]: the IC50 in assay [1] lay within 1 to 100 nM; in assay [2], 100 to 1000 nM.
On to `CC(=O)c1c([C@@H]2C[C@H]3CC[C@@H](C2)N3C(=O)c2nnc[nH]2)nc2c(-c3ccc(-c4ccc5nn(C)cc5c4)nc3)cnn2c1N` [Compound 1.1.70, 1-(5-((1R,3s,5S)-8-(4H-1,2,4-triazole-3-carbonyl)-8-azabicyclo[3.2.1]octan-3-yl)-7-amino-3-(6-(2-methyl-2H-indazol-5-yl)pyridin-3-yl)pyrazolo[1,5-a]pyrimidin-6-yl)ethanone], for which the IC50 in assay [1] (setting [3]) and in assay [2] (setting [3]) was 1 to 100 nM throughout.
On to `COc1ccc(-c2ccc(-c3cnn4c(N)c(C(C)=O)c([C@@H]5C[C@H]6CC[C@@H](C5)N6C(=O)c5nnc[nH]5)nc34)cn2)cc1C#N` [Compound 1.1.124, 5-(5-(5-((1R,3s,5S)-8-(4H-1,2,4-triazole-3-carbonyl)-8-azabicyclo[3.2.1]octan-3-yl)-6-acetyl-7-aminopyrazolo[1,5-a]pyrimidin-3-yl)pyridin-2-yl)-2-methoxybenzonitrile], for which the IC50 in assay [1] (setting [3]) and in assay [2] (setting [3]) was 100 to 1000 nM in each case.
For `CC(=O)c1c(C2CC3CCC(C2)N3C(=O)c2c[nH]nn2)nc2c(-c3ccc(-c4ccccc4)nc3)cnn2c1N` [Compound 1.1.21, 1-(5-((1R,3s,5S)-8-(1H-1,2,3-triazole-5-carbonyl)-8-azabicyclo[3.2.1]octan-3-yl)-7-amino-3-(6-phenylpyridin-3-yl)pyrazolo[1,5-a]pyrimidin-6-yl)ethanone], the IC50 in assay [1] (setting [3]) and in assay [2] (setting [3]) was 1 to 100 nM each time.
Regarding `CC(=O)c1c([C@@H]2C[C@H]3CC[C@@H](C2)N3C(=O)c2nnc[nH]2)nc2c(-c3cnc(C(C)(C)O)nc3)cnn2c1N` [Compound 1.1.180, 1-(5-((1R,3s,5S)-8-(4H-1,2,4-triazole-3-carbonyl)-8-azabicyclo[3.2.1]octan-3-yl)-7-amino-3-(2-(2-hydroxypropan-2-yl)pyrimidin-5-yl)pyrazolo[1,5-a]pyrimidin-6-yl)ethanone], the IC50 in assay [1] (setting [3]) and in assay [2] (setting [3]) was 100 to 1000 nM in each case.
